# Laboratory results reported in ChEMBL document CHEMBL4017441, “Mitigating the inhibition of human bile salt export pump by drugs: opportunities provided by physicochemical property modulation, in silico modeling, and structural modification” (Drug Metab Dispos, 2012).
# Counter-ions that a name gives are not always drawn.
# Target: Bile salt export pump (Homo sapiens, UniProt O95342)
# Type: ADME
row,Compound,IC50 [µM]
1,CCC(=O)OC(OP(=O)(CCCCc1ccccc1)CC(=O)N1CC(C2CCCCC2)CC1C(=O)O)C(C)C (stereo not given),< 13.3
2,Cc1ccc(NC(=O)c2cccc3c2oc2ccccc23)cc1NC(=O)c1cccc(CN2CCN(C)CC2)c1,< 10
3,O=C(NO)C(CCc1ccccc1)CS(=O)(=O)N1CCN(c2ccc(F)cc2)CC1 (stereo not given),< 10
4,Cc1cc(NS(=O)(=O)c2ccc(N)cc2)no1 [SULFAMETHOXAZOLE],> 1000
5,CCCCc1nc(Cl)c(CO)n1Cc1ccc(-c2ccccc2-c2nn[nH]n2)cc1 [LOSARTAN],< 10
6,Nc1cc(-c2ccncc2)c[nH]c1=O [INAMRINONE],371
7,Cc1ccc(OC(C)(C)[C@H]2OC[C@@H](C/C=C\CCC(=O)O)[C@@H](c3cccnc3)O2)c(C#N)c1,< 10
8,CCCc1c2nc(C(=O)O)cc(N(C)C(C)=O)c2cc2c(=O)cc(C(=O)O)oc12,> 1000
9,CN(C)CCC(c1ccccc1)c1ccccn1 (stereo not given) [PHENIRAMINE MALEATE],> 1000
10,c1ccc2[nH]c(-c3cscn3)nc2c1 [THIABENDAZOLE],560
11,COc1ncnc(NS(=O)(=O)c2ccc(N)cc2)c1OC [SULFADOXINE],> 1000
12,c1ccc2c(CCC3CCNCC3)c[nH]c2c1 [INDALPINE],> 1000
13,O=C(O)c1cc2cc(O)ccc2n1Cc1ccc(Cl)c(C(F)(F)F)c1,18.5
14,CCOc1ccc2nc3cc(N)ccc3c(N)c2c1 [ETHACRIDINE],43.5
15,COc1ccc(Nc2ccn(-c3ccccc3)n2)cc1,23
16,C[C@H](NCc1ccc(OCc2ccccc2F)cc1)C(N)=O [RALFINAMIDE],175
17,O=C(Nc1ccc(C(=O)O)c(O)c1)c1ccccc1 [BENZOYLPAS],> 1000
18,Cc1onc(-c2ccccc2Cl)c1C(=O)N[C@@H]1C(=O)N2[C@@H]1SC(C)(C)[C@@H]2C(=O)O [CLOXACILLIN],41.6
19,CC[C@@H](CO)NC(=O)[C@@H]1C=C2c3cccc4c3c(cn4C)C[C@H]2N(C)C1 [METHYSERGIDE],33.1
20,C=C[C@H]1C[N@@]2CC[C@H]1C[C@H]2[C@H](O)c1ccnc2ccc(OC)cc12 [QUININE],98.8
21,C1CCc2nnnn2CC1 [PENTYLENETETRAZOL],> 1000
22,CCCc1ccc(OCC(C)O)c2c(=O)cc(C(=O)O)oc12 (stereo not given),271
23,CSc1ccc2c(c1)N(CCC1CCCCN1C)c1ccccc1S2 (stereo not given) [THIORIDAZINE],24.3
24,CN[C@H]1C(O[C@H]2C(OC3C(O)C(O)C(NC(=N)N)C(O)C3NC(=N)N)OC(C)[C@]2(O)C=O)O[C@H](CO)[C@@H](O)[C@@H]1O (stereo not given in full),> 1000
25,CS(=O)(=O)Oc1ccc(OCCc2ccc(C[C@H](SCCc3ccc(O)cc3)C(=O)O)cc2)cc1,< 13.4

row,Compound,IC50 [µM]
1,CCCc1ncc(-c2ccnc(Nc3ccc(S(=O)(=O)NCCOC)cc3)n2)n1C(C)C,< 10
2,O=C(OCC(O)CO)c1ccccc1Nc1ccnc2cc(Cl)ccc12 (stereo not given) [GLAFENINE],< 14.9
3,Cc1cc(C)nc(NS(=O)(=O)c2ccc(N)cc2)n1 [SULFAMETHAZINE],> 1000
4,CCCc1nn(C)c2c(=O)[nH]c(-c3cc(S(=O)(=O)N4CCN(C)CC4)ccc3OCC)nc12,16.4
5,Cn1c(=O)c2c(ncn2CC(O)CO)n(C)c1=O (stereo not given) [DYPHYLLINE],> 1000
6,NCCS [CYSTEAMINE],331
7,O=C(O)CCn1c2c(c3ccccc31)C[C@H](NS(=O)(=O)c1ccc(F)cc1)CC2 [RAMATROBAN],62.4
8,Cc1oncc1C(=O)Nc1ccc(C(F)(F)F)cc1 [LEFLUNOMIDE],110
9,CCCCCCCCCCCCc1ccc(S(=O)(=O)Nc2nncs2)cc1,21
10,CC(=O)Nc1ccccc1OC[C@@H](O)CNC1CCN(Cc2ccc(Cl)cc2)CC1,55.6
11,CC(=O)OCC(=O)C1(O)C(C)CC2C3CC(F)C4=CC(=O)C=CC4(C)C3C(O)CC21C (stereo not given),33.6
12,O=C(O)c1cc2sccc2n1Cc1ccc(Cl)c(Cl)c1,13.7
13,CCCc1c2oc(C(=O)O)cc(=O)c2cc2c(=O)cc(C(=O)O)oc12 [PROBICROMIL],> 1000
14,Cc1onc(-c2c(F)cccc2Cl)c1C(=O)N[C@@H]1C(=O)N2[C@@H]1SC(C)(C)[C@@H]2C(=O)O [FLOXACILLIN],< 10
15,COc1ccccc1N1CCN(CCCNc2cc(=O)n(C)c(=O)n2C)CC1,< 11.3
16,C[N+](C)(C)CCOC(N)=O [CARBAMOYLCHOLINE],> 1000
17,Cc1ccc(C(=O)N2CC3CNCC(C2)O3)cc1NC(=O)CC12CC3CC(CC(C3)C1)C2,59.5
18,CC(=O)O[C@]1(C(C)=O)CC[C@H]2[C@@H]3C=C(C)C4=CC(=O)CC[C@]4(C)[C@H]3CC[C@@]21C [MEGESTROL ACETATE],< 10
19,Fc1ccc([C@@H]2CCNC[C@H]2COc2ccc3c(c2)OCO3)cc1 [PAROXETINE HYDROCHLORIDE],68.9
20,CCCCCC(C)(O)/C=C/[C@@H]1[C@@H](C/C=C\CCCC(=O)O)[C@@H](O)C[C@H]1O (stereo not given in full),329
21,COC(=O)[C@H](Cc1ccccc1)NC(=O)[C@@H](N)CC(=O)O,> 1000
22,C[C@H](N)[C@H](O)c1cccc(O)c1 [METARAMINOL],> 1000
23,CC(Cc1ccccc1)(NC(=O)CN)c1ccccc1 (stereo not given) [REMACEMIDE],288
24,CCN(CC)CCOC(=O)c1ccc(N)cc1Cl [CHLOROPROCAINE],> 1000
25,c1ccc2[nH]c(-c3nc4ccccc4[nH]3)nc2c1,31.3

row,Compound,IC50 [µM]
1,CCOCn1cnc2c1c(=O)n(CCCCC(C)(C)O)c(=O)n2C [TORBAFYLLINE],305
2,CC(O)(P(=O)(O)O)P(=O)(O)O [ETIDRONIC ACID],> 1000
3,NCC1OC(OC2C(CO)OC(OC3C(O)C(N)CC(N)C3OC3OC(CN)C(O)C(O)C3N)C2O)C(N)C(O)C1O (stereo not given),> 1000
4,Clc1ccc(Nc2nnc(Cc3ccncc3)c3ccccc23)cc1 [VATALANIB],< 10
5,CN(C(=O)CN(CCO)CC(=O)N(C)C(C)(C)Cc1ccccc1)C(C)(C)Cc1ccccc1 [OXETHAZAINE],< 10
6,COc1c(OC)c(OC(C)=O)c2cc(Cl)ccc2c1OC(C)=O [LONAPALENE],14.4
7,N[C@H]1CCN(c2ccc3c(C(=O)NCC4CCCCC4)c(Cl)ccc3n2)C1,107
8,CCN1CCN(c2cc3c(cc2F)c(=O)c(C(=O)O)cn3C2CC2)CC1 [ENROFLOXACIN],> 1000
9,CCCCOc1cc(C(=O)OCCN(CC)CC)ccc1N [BENOXINATE],309
10,CCC[S+]([O-])CCCN(CC)CC(O)COc1ccc(C#N)cc1 (stereo not given) [ALMOKALANT],55.7
11,COc1ccccc1N1CCN(CC(O)COc2cccc3ccccc23)CC1 (stereo not given) [NAFTOPIDIL],< 10
12,CCCCCCCCCCCCCCCCCCCCCCO [DOCOSANOL],> 1000
13,CCC1=C(C)CN(C(=O)NCCc2ccc(S(=O)(=O)NC(=O)N[C@H]3CC[C@H](C)CC3)cc2)C1=O [GLIMEPIRIDE],< 10
14,CS(=O)(=O)OCCCCOS(C)(=O)=O [BUSULFAN],> 1000
15,CN(C)CCOC(c1ccc(Cl)cc1)c1ccccn1 (stereo not given) [CARBINOXAMINE],> 1000
16,COc1c(C(=O)O)n(Cc2ccc(Cl)c(Cl)c2)c2ccc(O)cc12,39.6
17,O=C(O[C@H]1C[N+]2(CCCOc3ccccc3)CCC1CC2)C(O)(c1cccs1)c1cccs1,127
18,C[C@](O)(C(=O)Nc1ccc(C(=O)c2ccccc2)cc1)C(F)(F)F [ZD-6169],21.4
19,CN(C)CCC=C1c2ccccc2C=Cc2ccccc21 [CYCLOBENZAPRINE],107
20,CC(=O)Oc1c(C)cc(Nc2ccn(-c3ccccc3)n2)cc1C,< 10
21,c1ccc2c(c1)sc1ccccc12 [DIBENZOTHIOPHENE],388
22,N[C@@H](CC(=O)N1CCn2c(nnc2C(F)(F)F)C1)Cc1cc(F)c(F)cc1F [SITAGLIPTIN],148
23,O=C1c2ccccc2S(=O)(=O)N1CCCCN1CCN(c2ncccn2)CC1 [IPSAPIRONE],31.2
24,c1ccc(CN(CC2=NCCN2)c2ccccc2)cc1 [ANTAZOLINE],> 1000
25,Cc1cccc(C)c1N=C1NCCCS1 [XYLAZINE],> 1000

row,Compound,IC50 [µM]
1,CC(CCc1ccc(O)cc1)NCCc1ccc(O)c(O)c1 (stereo not given) [DOBUTAMINE],> 1000
2,CCCc1c2oc(C(=O)O)cc(=O)c2cc2c(=O)cc(C(=O)O)n(CC)c12 [NEDOCROMIL],> 1000
3,Cc1n[nH]c(C)c1Cc1sc2c(c1C(=O)N1C[C@H](O)CO1)c(=O)n(C)c(=O)n2C(C)C,703
4,C/C=C/C(=O)N(CC)c1ccccc1C,110
5,N[C@@H]1C[C@H]1c1ccccc1.N[C@H]1C[C@@H]1c1ccccc1 [TRANYLCYPROMINE],> 1000
6,CCCC(=O)OCOC(=O)C1=C(C)NC(C)=C(C(=O)OC)C1c1cccc(Cl)c1Cl (stereo not given) [CLEVIDIPINE],36.4
7,CCN(CC)CCNC(=O)c1ccc(NS(C)(=O)=O)cc1 [SEMATILIDE],> 1000
8,Cc1ccc2c(c1)c1c(n2CCc2ccc(C)nc2)CCN(C)C1 [LATREPIRDINE],136
9,COc1ccc2c(c1)CC[C@@H]1[C@@H]2CC[C@@]2(C)[C@H]1CC[C@@]2(O)C#N,< 10
10,NCC1(CC(=O)O)CCCCC1 [GABAPENTIN],> 1000
11,CCC1(c2ccc(N)cc2)CCC(=O)NC1=O (stereo not given) [AMINOGLUTETHIMIDE],> 1000
12,CC(C)(Oc1ccc(CCNC(=O)c2ccc(Cl)cc2)cc1)C(=O)O [BEZAFIBRATE],181
13,O=c1c2ccccc2[se]n1-c1ccccc1 [EBSELEN],< 10
14,O=NN(CCCl)C(=O)NCCCl [CARMUSTINE],97.2
15,NC(=O)NC(=O)Cc1ccccc1 [PHENACEMIDE],> 1000
16,N=C(N)N1CCc2ccccc2C1 [DEBRISOQUIN],> 952
17,Nc1ccccc1C(=O)NCC(=O)O,> 1000
18,O=C(CCCN1CCC2(CC1)C(=O)NCN2c1ccccc1)c1ccc(F)cc1 [SPIPERONE],< 10
19,COc1ccc2c(C(=S)N(C)CC(=O)O)cccc2c1C(F)(F)F [TOLRESTAT],185
20,Cc1cccc(Nc2ccncc2S(=O)(=O)NC(=O)NC(C)C)c1 [TORSEMIDE],131
21,NS(=O)(=O)c1cc2c(cc1C(F)(F)F)NCNS2(=O)=O [HYDROFLUMETHIAZIDE],> 1000
22,PHENYLMERCURIC ACETATE,< 10
23,COc1ccccc1OCC(O)COC(N)=O (stereo not given) [METHOCARBAMOL],> 1000
24,Oc1ccc(C2CNCCc3c2cc(O)c(O)c3Cl)cc1 (stereo not given) [FENOLDOPAM],> 1000
25,CN1CCN(c2ccccc2/C=C2/SCCN(c3ccc(Cl)c(Cl)c3)C2=O)CC1,< 10
